In patent US11021541B2, “Method of inhibiting the gonadotropin-releasing hormone (GnRH) receptor by administering a GHR-106 monoclonal antibody” (Vancouver Biotech Ltd., priority 2018, dated 2021):
Read-outs that look alike come from different tables or passages of the source. Where a SMILES comes first, the peptide text is derived from it. [ ]: non-standard residue; d: D form. dPhe(4-Cl) = N[C@H](Cc1ccc(Cl)cc1)C(=O)O; d2Nal = N[C@H](Cc1ccc2ccccc2c1)C(=O)O; dCit = NC(=O)NCCC[C@@H](N)C(=O)O; d3Pal = N[C@H](Cc1cccnc1)C(=O)O

How the values were obtained:
[1] = cited from earlier work; for Estimated Half Life: estimated circulation half-life
[2] = tested on: GnRH receptors expressed on the surface of cultured cancer cells (OC-3-VGH); test: Competitive binding assay on microwells coated with OC-3-VGH cancer cells; parameters: species or system human; details: for competition with mGHR106 binding to OC-3-VGH coated microwells: FIG. 1A, mGHR106 0.50 or 0.25 μg/ml; for competition with hGHR106 binding to OC-3-VGH coated microwells: FIG. 1B, peptides each at 1 μg/mL
Description: Competitive binding assays were carried out according to accepted protocols, e.g. as described in U.S. Pat. No. 8,361,793. […] The N1-29 oligopeptides are derived from the N-terminal extracellular domains of GnRH receptors from each species. The amino acid sequence of each of Hu-P, Mo-P and Mu-P are shown as SEQ ID NO:1, SEQ ID NO:2 and SEQ ID NO:3 respectively in FIG. 3.
The white bars and black bars in FIG. 1A represent the different concentrations of mGHR106 (0.50 μg/ml and 0.25 μg/ml, respectively) used in each assay. […] Goat anti-human IgG-ALP (alkaline phosphatase labeled) was used as the probe, with error bars for duplicate assays indicated.

[3] = tested on: OC-3-VGH, PC-3, A549 and MDA-MB-435 cancer cells; test: TUNEL apoptosis assay of cultured and treated cancer cells; format: cell-based; details: co-incubation 24 to 72 hours, compared on a molar basis, FIGS. 2A and 2B
Description: In order to compare the anti-proliferative effects (or apoptosis) between mGHR106 or hGHR106 and antide on cancer cells, In Situ Cell Death Detection Kit, POD (Roche, Canada) was employed for detection and quantitation of apoptosis of cultured and treated cancer cells in vitro. Briefly cancer cells were cultured in RPMI-1640 medium at 37° C. in a CO2 (5%) incubator for 24 and/or 48 hours until all cancer cells are attached to microwells. Following removal of cell culture medium, fresh serum-free medium was added for an additional 3 hours incubation in a CO2 incubator.
After the serum-free starvation period, the cells were incubated in fresh medium containing 10% fetal calf serum, and hGHR106, mGHR106 or antide of known concentration was added for co-incubation of 24 to 72 hours. As the negative control, normal mouse IgG or normal human IgG of the same concentration was used for the same incubation period.
At the end of incubation, the attached cells were removed from tissue culture wells by appropriate cell detachment solution. Apoptosis of treated cancer cells was quantitatively determined by TUNEL assay with the instructions provided by Cell Death Detection Kit, POD (Roche, Canada). Percent increases of cells with apoptosis after treatments with any one of hGHR106, mGHR106 and antide were obtained by subtracting spontaneous apoptosis from the negative control. […]

OC-3-VGH cancer cells = test: Comparative gene regulation study in cancer cells; format: cell-based, human; details: FIG. 4; upon ligand treatment of cancer cells
Text: Comparative gene regulation upon administration of hGHR106 or the decapeptide GnRH analog antide was examined using conventional protocols, e.g. as described in U.S. Pat. No. 8,361,793. […] Expressions of a number of selected genes involved in the proliferation or survival of cancer cells were compared. The selected genes include: GnRH, GnRHR, P0, P1, P2, L37, and EGF, c-fos, P21 and cyclin D1. P0, P1, P2, and L37 are ribosomal proteins.

[4] = clinically used antibodies and GnRH decapeptide analogs

Molecule	Estimated Half Life [1, 4] [h]	competition with mGHR106 binding to OC-3-VGH coated microwells [2]	competition with hGHR106 binding to OC-3-VGH coated microwells [2]	further results
CC(=O)N[C@H](Cc1ccc2ccccc2c1)C(=O)N[C@H](Cc1ccc(Cl)cc1)C(=O)N[C@H](Cc1cccnc1)C(=O)N[C@@H](CO)C(=O)N[C@@H](Cc1ccc(O)cc1)C(=O)N[C@H](CCCNC(N)=O)C(=O)N[C@@H](CC(C)C)C(=O)N[C@@H](CCCNC(=N)N)C(=O)N1CCC[C@H]1C(=O)N[C@H](C)C(N)=O [Cetrorelix] (Ac-[d2Nal][dPhe(4-Cl)][d3Pal]SY[dCit]LRP[dA]-NH2)	10 to 63			
Mo-P: N1-29 oligopeptide of N-terminal extracellular domain of monkey GnRH receptor, SEQ ID NO:2 (MANSALPEQNQNHCSVINNSIPLMQGNLPT; Pan troglodytes)		compete	compete	
Gonadotropin-releasing hormone [Native GnRH]				Estimated Half Life ([1]; native GnRH): 0.033 to 0.067 h; half-life in human circulation ([1]; human circulation): 2 to 4 min
antide				induced apoptosis (percent increase of cells with apoptosis) [3]: very similar degrees of induced apoptosis; Cyclin D1 expression (OC-3-VGH cancer cells): downregulated; EGF expression (OC-3-VGH cancer cells): downregulated; GnRH expression (up-regulation) (OC-3-VGH cancer cells): 50%; expression of the GnRH receptor (GnRHR) (OC-3-VGH cancer cells): unchanged
Hu-P: N1-29 oligopeptide of N-terminal extracellular domain of human GnRH receptor, SEQ ID NO:1 (MANNASLEQDPNHCSAINNSIPLIQGKLPT; listed as Mus musculus)		compete	compete	
Panitumumab	180			
Beracizumab	480			
Mu-P: N1-29 oligopeptide of N-terminal extracellular domain of mouse GnRH receptor, SEQ ID NO:3 (MANSASPEQNQNHCSAINNSIPLMQGNLPT; listed as Homo sapiens)		not	not	
Luprorelin	3			
